Laboratory results published in patent US20200031785A1, “METHODS FOR TREATING CHRONIC PAIN AND OPIOID DEPENDENCE USING ADENYLYL CYCLASE INHIBITORS” (Purdue Research Foundation, priority 2017, published 2020).
Like-named read-outs stand apart in the source and are kept apart here.

How the values were obtained:
[1] = target: T1, hAC1 (Homo sapiens, UniProt Q08828); experiment: Cyclic AMP accumulation in HEK cells stably expressing AC1, stimulated with A23187 (HTRF); format: cell-based; settings: for inhibition at 30 µM: HEK293; for Selectivity AC1 vs AC8: AC8 IC50/AC1 IC50, in the absence of AC8 IC50, estimate based on IC50 ≥30 μM
T1 construct: expressed in transfected cells
T1 sequence (Q08828 whole entry): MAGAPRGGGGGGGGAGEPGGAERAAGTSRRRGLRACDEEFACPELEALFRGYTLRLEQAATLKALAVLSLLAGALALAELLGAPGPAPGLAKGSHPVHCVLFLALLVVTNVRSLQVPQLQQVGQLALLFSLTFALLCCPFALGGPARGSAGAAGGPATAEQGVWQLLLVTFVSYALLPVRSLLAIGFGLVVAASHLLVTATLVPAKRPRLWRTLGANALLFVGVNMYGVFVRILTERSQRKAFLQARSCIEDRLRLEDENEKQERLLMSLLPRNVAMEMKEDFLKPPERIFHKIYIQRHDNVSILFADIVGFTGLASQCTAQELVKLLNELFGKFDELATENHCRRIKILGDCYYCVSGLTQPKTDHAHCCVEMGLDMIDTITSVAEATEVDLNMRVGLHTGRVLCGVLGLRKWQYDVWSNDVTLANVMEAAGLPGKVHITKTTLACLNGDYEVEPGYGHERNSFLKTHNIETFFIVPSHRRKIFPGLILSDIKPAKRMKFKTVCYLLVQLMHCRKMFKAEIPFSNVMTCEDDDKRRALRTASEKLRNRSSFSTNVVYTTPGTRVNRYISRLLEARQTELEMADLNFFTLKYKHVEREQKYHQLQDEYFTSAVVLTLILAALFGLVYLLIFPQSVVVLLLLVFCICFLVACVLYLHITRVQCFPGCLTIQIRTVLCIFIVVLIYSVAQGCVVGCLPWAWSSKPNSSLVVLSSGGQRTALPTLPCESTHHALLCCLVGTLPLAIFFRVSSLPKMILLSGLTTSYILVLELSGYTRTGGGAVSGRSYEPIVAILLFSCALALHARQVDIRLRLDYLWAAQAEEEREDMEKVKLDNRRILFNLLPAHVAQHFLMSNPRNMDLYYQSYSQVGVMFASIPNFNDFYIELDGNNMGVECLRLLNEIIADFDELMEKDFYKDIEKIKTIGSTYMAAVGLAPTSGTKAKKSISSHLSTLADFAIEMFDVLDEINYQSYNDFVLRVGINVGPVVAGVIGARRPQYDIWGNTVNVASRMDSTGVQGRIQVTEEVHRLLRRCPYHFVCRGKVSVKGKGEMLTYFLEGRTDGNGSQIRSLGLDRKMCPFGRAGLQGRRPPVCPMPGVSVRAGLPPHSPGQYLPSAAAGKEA
Protocol: The development and mechanistic characterization of AC1-selective small molecule inhibitors is believed to provide novel non-opioid weapons in the war on chronic pain. We identified our initial hits via screening 10,000 selected compounds from the Life Chemicals collection. The screen was carried out using HEK cells stably expressing AC1 (HEK-AC1) and cyclic AMP accumulation was stimulated using the Ca^2+ ionophore, A23187 to selectively activate AC1. Compounds with potential chemical liabilities and PAINs were removed from further evaluation (Baell and Holloway, J. Med. Chem. 2010, 53, 2719-2740).
(§1) Fresh powders of several robust inhibitors (>90% inhibition) were evaluated in multiple confirmation assays assessing the dose response relationship for inhibiting AC1 and AC8 activity. Confirmation assays used A23817 to selectively stimulate recombinant AC1 or AC8 in the HEK cell background (Cumbay and Watts (2001), J. Pharmacol Exp Ther 297:1201-1399). This approach takes advantage of one unique regulatory property of AC1 for the development of selective inhibitors. Both AC1 and AC8 are robustly activated by Ca^2+/CaM under a variety of conditions, whereas the effects of Ca^2+/CaM on AC3 are modest and conditional requiring activation by G proteins. Previous studies have identified unique Ca^2+/CaM binding domains as one possible site of interaction to achieve AC1 (vs. AC8) selectivity (Masada et al., 2012, Biochemistry 51:7917-7929).
(§2) The primary technology we employed to measure cAMP accumulation was a homogenous time-resolved fluorescence (HTRF) assay, the same technology utilized in the primary screen. […] This could be due to either 1) the chemical scaffolds are exquisitely selective toward the AC family of enzymes or 2) the library has not been screened against a sufficient number of targets. The answer is likely a combination of the two; nonetheless, the lack of biological data to date bodes well for these series and any potential off-target promiscuity.
(§3) Human embryonic kidney (HEK) cells stably expressing AC1, AC8, or AC1 with the MOR were cultured in Dulbecco's Modified Eagle Medium (Life Technologies, Grand Island, N.Y.) supplemented with 5% bovine calf serum (Hyclone, Logan, Utah), 5% fetal clone I (Hyclone), Antibiotic-Antimycotic (Life Technologies), and G418 (Invivogen, San Diego, Calif.) (HEK-AC1), or hygromycin B (Fisher Scientific, Pittsburgh, Pa.) (HEK-AC8), or G418 and puromycin (Sigma-Aldrich) (HEK-AC1/MOR). Chinese hamster ovary (CHO) cells expressing the MOR (CHO-MOR) in the PathHunter® β-Arrestin GPCR assay platform were purchased from DiscoveRx (Freemont, Calif.). Cells were grown in Ham's F12 media supplemented with 1 mM L-glutamine (Thermo Scientific, West Palm Beach, Fla.), 10% fetal bovine serum (Hyclone), 50 U/ml penicillin, 50 μg/ml streptomycin (Life Technologies), G418 and hygromycin B. Cells were grown and frozen as previously described (J. M. Conley, et al., J Vis Exp, e51218 (2014)).
(§4) Cyclic AMP accumulation was measured as previously described (Brust, et al., J. Pharmacol. Exp. Ther. 352, 480-493(2015)). Briefly, cryopreserved cells were thawed, resuspended in optiMEM (Life Technologies), and plated in white, flat bottom, low-volume, tissue culture-treated 384 well plates (PerkinElmer, Shelton, Conn.). Plates with cells were incubated in a 37° C. humidified incubator for 1 h. Inhibitors were added and plates were incubated at room temperature for 30 min followed by the addition of AC stimulants in the presence of 500 μM IBMX. Cells were incubated at room temperature for 1 h and cAMP accumulation was measured using Cisbio's cAMP kit (Cisbio Bioassays, Bedford, Mass.) according to the manufacturer's instructions.

[2] = target: T2, hAC8 (Homo sapiens, UniProt P40145); experiment: Cyclic AMP accumulation in HEK cells stably expressing AC8, stimulated with A23187 (HTRF); format: cell-based; settings: for inhibition at 30 µM: HEK293; for hAC8 % Inhib.: % inhibition at 30 μM (negative values indicate a potentiated response)
T2 construct: expressed in transfected cells
T2 sequence (P40145 whole entry): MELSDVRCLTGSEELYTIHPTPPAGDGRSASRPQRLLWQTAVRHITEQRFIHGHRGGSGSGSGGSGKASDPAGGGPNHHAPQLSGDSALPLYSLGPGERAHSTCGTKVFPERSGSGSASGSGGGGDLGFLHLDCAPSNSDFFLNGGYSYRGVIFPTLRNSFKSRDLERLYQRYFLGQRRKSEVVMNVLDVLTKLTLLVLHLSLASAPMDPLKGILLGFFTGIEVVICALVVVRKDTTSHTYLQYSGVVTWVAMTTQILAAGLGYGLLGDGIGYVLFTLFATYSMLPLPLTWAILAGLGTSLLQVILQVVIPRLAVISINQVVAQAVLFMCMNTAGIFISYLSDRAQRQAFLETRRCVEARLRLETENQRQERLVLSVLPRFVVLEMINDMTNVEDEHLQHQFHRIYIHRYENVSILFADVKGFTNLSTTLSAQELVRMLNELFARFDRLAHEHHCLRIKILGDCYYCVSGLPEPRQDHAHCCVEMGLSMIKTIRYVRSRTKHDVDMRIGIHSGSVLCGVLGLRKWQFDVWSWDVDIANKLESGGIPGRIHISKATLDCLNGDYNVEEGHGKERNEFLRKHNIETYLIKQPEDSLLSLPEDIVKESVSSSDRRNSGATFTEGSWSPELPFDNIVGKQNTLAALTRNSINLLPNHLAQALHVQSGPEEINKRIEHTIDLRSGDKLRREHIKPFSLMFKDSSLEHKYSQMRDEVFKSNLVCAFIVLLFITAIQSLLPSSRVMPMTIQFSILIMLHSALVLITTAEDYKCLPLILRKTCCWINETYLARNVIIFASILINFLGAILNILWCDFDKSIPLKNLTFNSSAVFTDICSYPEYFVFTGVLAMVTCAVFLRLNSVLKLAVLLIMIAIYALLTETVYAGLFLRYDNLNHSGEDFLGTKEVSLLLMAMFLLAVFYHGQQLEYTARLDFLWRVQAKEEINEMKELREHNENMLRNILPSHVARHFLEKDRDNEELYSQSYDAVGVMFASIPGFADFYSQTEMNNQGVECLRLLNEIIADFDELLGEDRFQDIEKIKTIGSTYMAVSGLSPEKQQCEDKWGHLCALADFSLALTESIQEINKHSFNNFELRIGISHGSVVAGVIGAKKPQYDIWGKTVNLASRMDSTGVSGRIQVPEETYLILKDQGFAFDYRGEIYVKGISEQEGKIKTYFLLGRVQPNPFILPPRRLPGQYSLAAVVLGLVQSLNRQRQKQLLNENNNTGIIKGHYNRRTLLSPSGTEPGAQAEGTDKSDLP
Protocol: as §1, §2, §3, §4

[3] = target: T3, hAC2 (Homo sapiens, UniProt Q08462); experiment: Cyclic AMP accumulation in stable HEK-AC2 cells, stimulated with 100 nM PMA; format: cell-based; settings: for hAC2 % Inhib.: % inhibition at 30 μM, 100 nM PMA-stimulated, negative = potentiated response, n = 2
T3 construct: expressed in transfected cells
T3 sequence (Q08462 whole entry): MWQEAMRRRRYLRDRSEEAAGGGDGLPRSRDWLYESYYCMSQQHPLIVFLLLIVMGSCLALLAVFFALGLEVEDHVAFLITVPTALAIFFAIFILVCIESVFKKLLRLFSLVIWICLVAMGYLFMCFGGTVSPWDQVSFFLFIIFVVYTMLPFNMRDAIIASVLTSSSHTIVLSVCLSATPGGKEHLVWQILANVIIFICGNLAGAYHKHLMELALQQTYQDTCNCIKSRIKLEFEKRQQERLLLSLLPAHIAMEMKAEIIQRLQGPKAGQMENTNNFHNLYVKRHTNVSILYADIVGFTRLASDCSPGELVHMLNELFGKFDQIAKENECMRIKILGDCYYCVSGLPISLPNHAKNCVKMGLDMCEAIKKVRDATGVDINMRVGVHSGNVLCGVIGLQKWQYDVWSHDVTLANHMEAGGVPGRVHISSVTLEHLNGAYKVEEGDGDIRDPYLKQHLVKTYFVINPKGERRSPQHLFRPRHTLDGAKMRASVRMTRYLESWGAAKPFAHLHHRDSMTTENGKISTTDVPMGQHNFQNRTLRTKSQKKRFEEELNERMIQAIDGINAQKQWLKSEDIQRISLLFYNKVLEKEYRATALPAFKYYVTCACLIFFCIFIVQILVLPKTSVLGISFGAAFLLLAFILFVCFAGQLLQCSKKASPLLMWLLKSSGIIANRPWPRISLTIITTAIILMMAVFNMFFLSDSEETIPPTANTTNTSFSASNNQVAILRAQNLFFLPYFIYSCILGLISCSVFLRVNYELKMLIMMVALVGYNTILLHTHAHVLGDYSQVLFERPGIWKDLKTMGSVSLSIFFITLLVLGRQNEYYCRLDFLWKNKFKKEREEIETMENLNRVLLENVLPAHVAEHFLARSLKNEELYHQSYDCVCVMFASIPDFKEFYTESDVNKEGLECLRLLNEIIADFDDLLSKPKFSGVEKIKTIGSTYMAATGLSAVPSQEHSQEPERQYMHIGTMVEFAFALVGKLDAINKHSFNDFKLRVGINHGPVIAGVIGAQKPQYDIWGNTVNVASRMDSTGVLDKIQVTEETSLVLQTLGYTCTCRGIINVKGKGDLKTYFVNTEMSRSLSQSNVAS
Protocol: as §4

[4] = target: T4, hAC5 (Homo sapiens, UniProt O95622); experiment: Cyclic AMP accumulation in stable HEK-AC5 cells, stimulated with 300 nM forskolin; format: cell-based; settings: % inhibition at 30 μM, 300 nM forskolin-stimulated, negative = potentiated response, n = 2
T4 construct: expressed in transfected cells
T4 sequence (O95622 whole entry): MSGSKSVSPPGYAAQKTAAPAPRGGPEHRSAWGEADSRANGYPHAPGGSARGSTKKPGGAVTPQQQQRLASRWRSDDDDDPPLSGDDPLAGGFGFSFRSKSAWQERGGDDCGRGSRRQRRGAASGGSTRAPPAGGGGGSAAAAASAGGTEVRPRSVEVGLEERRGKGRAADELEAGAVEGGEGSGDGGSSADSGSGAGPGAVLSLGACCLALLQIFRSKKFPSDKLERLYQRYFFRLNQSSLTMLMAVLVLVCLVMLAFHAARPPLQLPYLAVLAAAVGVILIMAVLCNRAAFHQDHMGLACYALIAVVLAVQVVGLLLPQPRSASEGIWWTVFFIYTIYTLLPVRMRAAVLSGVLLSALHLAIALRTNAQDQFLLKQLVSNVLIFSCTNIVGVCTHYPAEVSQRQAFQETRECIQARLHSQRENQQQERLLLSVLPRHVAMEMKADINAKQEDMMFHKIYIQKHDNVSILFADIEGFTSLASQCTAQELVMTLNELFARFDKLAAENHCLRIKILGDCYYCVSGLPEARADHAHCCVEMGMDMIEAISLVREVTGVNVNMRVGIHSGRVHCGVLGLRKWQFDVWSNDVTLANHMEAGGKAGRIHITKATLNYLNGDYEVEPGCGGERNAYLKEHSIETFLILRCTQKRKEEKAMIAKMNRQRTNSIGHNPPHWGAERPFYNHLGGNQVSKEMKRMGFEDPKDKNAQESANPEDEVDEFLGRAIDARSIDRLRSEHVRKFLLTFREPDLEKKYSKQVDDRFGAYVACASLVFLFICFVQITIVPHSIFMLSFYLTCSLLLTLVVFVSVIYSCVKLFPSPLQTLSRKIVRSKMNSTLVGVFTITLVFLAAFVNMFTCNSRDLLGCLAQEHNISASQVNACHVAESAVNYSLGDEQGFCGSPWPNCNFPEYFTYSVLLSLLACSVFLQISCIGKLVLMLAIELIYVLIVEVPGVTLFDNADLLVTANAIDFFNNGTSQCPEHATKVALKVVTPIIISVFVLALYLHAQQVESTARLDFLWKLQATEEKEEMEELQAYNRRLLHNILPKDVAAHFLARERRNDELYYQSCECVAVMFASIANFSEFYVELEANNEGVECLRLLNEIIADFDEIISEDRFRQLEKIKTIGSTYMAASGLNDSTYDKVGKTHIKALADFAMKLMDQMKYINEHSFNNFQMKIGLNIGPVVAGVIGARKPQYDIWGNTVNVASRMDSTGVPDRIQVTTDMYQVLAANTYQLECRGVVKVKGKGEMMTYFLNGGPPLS
Protocol: as §4

[5] = system: AC1-HEK cells
Protocol: Cell viability assays were conducted with HEK-AC1 cells following plating and compound incubation protocols identical to the procedures described above in “Cyclic AMP assays in cells”. Cell viability was measured as a percentage of vehicle using 2% Triton X-100 (Sigma-Aldrich) as a control. The CellTiter-Glo® Luminescent Cell Viability Assay kit from Promega (Madison, Wis.) was employed to assess cell viability according to the manufacturer's instructions. Luminescence counts were measured using a Synergy 4.

[6] = system: chronic pain responses; settings: both mice and rats; cited from earlier work
[7] = target: T3, hAC2; settings: data from Brust et al. 2017; % inhibition at 30 μM, PMA-stimulated, negative = potentiated; cited from earlier work
[8] = target: T4, hAC5; settings: data from Brust et al. 2017; % inhibition at 30 μM, forskolin-stimulated, negative = potentiated; cited from earlier work
[9] = system: AC1-HEK cells; settings: data from Brust et al. 2017; cited from earlier work
[10] = HEK-AC1 cells, read-out: HEK-AC1 IC50
[11] = HEK-AC8 cells, read-out: HEK-AC8 IC50
[12] = stable HEK cell line, A23187-stimulated cAMP accumulation, n ≥ 3
[13] = stable HEK cell line, A23187-stimulated cAMP accumulation, n ≥ 3, read-out: hAC1 IC50
[14] = stable HEK cell line, A23187-stimulated cAMP accumulation, n ≥ 3, read-out: hAC8 IC50

| SMILES | inhibition at 30 µM ([1]; HEK-AC1 cells) [%] | inhibition at 30 µM ([2]; HEK-AC8 cells) [%] | IC50 [1, 10] [µM] | IC50 [2, 11] [µM] | Selectivity AC1 vs AC8 [1] | hAC1 % Inhib. [1, 12] [%] | IC50 [1, 13] [µM] | hAC8 % Inhib. [2] [%] | hAC2 % Inhib. [3] [%] | hAC5 % Inhib. [4] [%] | Viability % Vehicle [5] [% Vehicle] | other results |
| --- | --- | --- | --- | --- | --- | --- | --- | --- | --- | --- | --- | --- |
| O=C(Nc1nnc(-c2ccc(F)cc2)o1)c1ccccc1F [AC10060, 2-fluoro-N-(5-(4-fluorophenyl)-1,3,4-oxadiazol-2-yl)benzamide] | 12 ± 4 | 13 ± 7 | – | – | – | – | – | – | – | – | – | inhibition at 10 µM ([3]; HEK-AC2 cells, 10 μM, (−) = negative inhibition (potentiated response)): 3 ± 6% |
| O=C(Nc1nnc(-c2ccc(F)cc2)o1)c1ccc(-c2ccccc2)cc1 [AC10066, N-(5-(4-fluorophenyl)-1,3,4-oxadiazol-2-yl)-[1,1′-biphenyl]-4-carboxamide] | 97 ± 1 | 90 ± 10 | 2.8 ± 0.6 | 7.5 ± 1 | – | – | – | – | – | – | – | – |
| Cc1ccc(C(=O)Nc2nnc(-c3ccc(F)cc3)o2)cc1C(F)(F)F [AC10067, N-(5-(4-fluorophenyl)-1,3,4-oxadiazol-2-yl)-4-methyl-3-(trifluoromethyl)benzamide] | 93 ± 5 | 75 ± 12 | 4.6 ± 2 | 9 ± 5 | – | – | – | – | – | – | – | – |
| COc1cc(C(=O)Nc2nnc(-c3ccc(F)cc3)o2)cc(C(F)(F)F)c1 [AC10068, N-(5-(4-fluorophenyl)-1,3,4-oxadiazol-2-yl)-3-methoxy-5-(trifluoromethyl)benzamide] | 97 ± 1 | 80 ± 9 | 5 ± 1 | 6 ± 1 | – | – | – | – | – | – | – | – |
| Cc1cc(C(=O)Nc2nnc(C3CCCCC3)o2)cc(C(F)(F)F)c1 [AC10069, N-(5-cyclohexyl-1,3,4-oxadiazol-2-yl)-3-methyl-5-(trifluoromethyl)benzamide] | 96 ± 1 | 83 ± 7 | 9.6 ± 1 | 15 ± 2 | – | – | – | – | – | – | – | – |
| COc1cc(C(=O)Nc2nnc(C3CCCCC3)o2)cc(C(F)(F)F)c1 [AC10070, N-(5-cyclohexyl-1,3,4-oxadiazol-2-yl)-3-methoxy-5-(trifluoromethyl)benzamide] | 90 ± 2 | 79 ± 11 | 4.8 ± 1 | 9 ± 1 | – | – | – | – | – | – | – | – |
| Cc1ccc(C(=O)Nc2nnc(C3CCCCC3)o2)cc1C(F)(F)F [AC10071, N-(5-cyclohexyl-1,3,4-oxadiazol-2-yl)-4-methyl-3-(trifluoromethyl)benzamide] | 100 ± 1 | 83 ± 7 | 3.7 ± 1 | 7 ± 1 | – | – | – | – | – | – | – | – |
| Cc1cc(C(=O)Nc2nnc(-c3ccc4c(c3)CCCC4)o2)cc(C(F)(F)F)c1 [AC10072, 3-methyl-N-(5-(5,6,7,8-tetrahydronaphthalen-2-yl)-1,3,4-oxadiazol-2-yl)-5-(trifluoromethyl)benzamide] | 85 ± 4 | 78 ± 13 | 9.1 ± 3 | 2.4 ± 0.02 | – | – | – | – | – | – | – | – |
| Cc1ccc(C(=O)Nc2nnc(-c3ccc4c(c3)CCCC4)o2)cc1C(F)(F)F [AC10073, 4-methyl-N-(5-(5,6,7,8-tetrahydronaphthalen-2-yl)-1,3,4-oxadiazol-2-yl)-3-(trifluoromethyl)benzamide] | 64 ± 8 | 65 ± 12 | 26 ± 11 | 13 ± 2 | – | – | – | – | – | – | – | – |
| COc1cc(C(=O)Nc2nnc(-c3ccc4c(c3)CCCC4)o2)cc(C(F)(F)F)c1 [AC10074, 3-methoxy-N-(5-(5,6,7,8-tetrahydronaphthalen-2-yl)-1,3,4-oxadiazol-2-yl)-5-(trifluoromethyl)benzamide] | 85 ± 3 | 79 ± 6 | 9.4 ± 1 | 10 ± 0.4 | – | – | – | – | – | – | – | – |
| CC1CC(C)CN(S(=O)(=O)c2ccc(C(=O)Nc3nnc(-c4cccs4)o3)cc2)C1 (stereo not shown) [F0559-0346] | – | – | – | – | 2-fold | 99 ± 1 | 9.1 ± 2 | 74 ± 13 | −6 | 4 | 118 ± 2 | IC50 [2, 14]: 17 ± 6 µM |
| O=C(Nc1nnc(-c2ccc3c(c2)OCCO3)o1)c1ccc(Br)cc1 [F0608-0011] | – | – | – | – | 9-fold | 101 ± 1 | 2 ± 0.2 | 79 ± 1 | -7 | −10 | 125 ± 3 | IC50 [2, 14]: 18 ± 2 µM |
| O=C(Nc1nnc(-c2ccc3c(c2)CCCC3)o1)c1ccccc1 [F0608-0538] | – | – | – | – | 10-fold | 101 ± 1 | 2.1 ± 0.4 | 76 ± 8 | -95 | −34 | 118 ± 6 | IC50 [2, 14]: 21 ± 4 µM |
| CCc1cc(=O)[nH]c(-n2nc(C)cc2NC(=O)c2ccccc2F)n1 [F2215-0213] | – | – | – | – | – | 99 ± 1 | 0.5 ± 0.1 | 20 ± 1 | −70 | 9 | 101 ± 17 | – |
| CCc1c(C)nc(-n2nc(C)cc2NC(=O)c2ccco2)[nH]c1=O [F2215-0772] | – | – | – | – | >30-fold | 100 ± 1 | 0.9 ± 0.2 | 34 ± 7 | 32 | 13 | 93 ± 1 | – |
| CSc1ccccc1C(=O)Nc1cc(C)nn1-c1nc2c(c(=O)[nH]1)CCC2 [F2215-0954] | – | – | – | – | >5-fold | 99 ± 1 | 5.9 ± 0.4 | 35 ± 8 | −185 | −21 | 106 ± 14 | – |
| CSc1cccc(C(=O)Nc2nnc(C3CCCCC3)o2)c1 [F2289-0107] | – | – | – | – | >4-fold | 99 ± 1 | 7.5 ± 2 | 31 ± 2 | −210 | -28 | 117 ± 1 | – |
| Nc1ncnc2c1ncn2CCNCCCCCO [NB001] | – | – | – | – | – | – | – | – | – | – | – | effect on chronic pain responses (inflammatory and neuropathic) [6]: markedly attenuated chronic pain responses |
| O=c1cc(C(Cl)(Cl)Cl)oc2ccc(Cl)cc12 [ST034307, 6-chloro-2-(trichloromethyl)-4H-chromen-4-one] | – | – | – | – | – | – | – | – | – | – | – | hAC2 % Inhib. [7]: −142%; hAC5 % Inhib. [8]: −44%; Viability % Vehicle [9]: 85 ± 6 % Vehicle |
